Read-outs that look alike come from different tables or passages of the source.
What was measured:
[1] = 0.44 M LDEE.HCl, pH 3.7±0.1, 4.0° C., 39 weeks, 3 samples
Experimental: The LD concentration was monitored in 3 samples of 0.44 M LDEE.HCl at pH 3.7±0.1 and 4.0° C.

[2] = initially about pH 3.7±0.2
Experimental: Such a pH can be maintained for example through co-dissolving citric acid and/or a citrate salt, e.g., monosodium citrate, for example to about 10-50 mM concentration. For infusion it is desired, in order to avoid acid-caused pain, to raise the pH at least to pH 2.4±0.3, for example to 2.4±0.3, 2.6±0.3, 2.8±0.3, 3.1±0.3, 3.4±0.3, 3.7±0.3 or to 4.0±0.3, for example by adding citric acid, monosodium citrate, or trisodium citrate.

[3] = 25° C., pH 7 or pH 5; cited from earlier work
[4] = Rate of hydrolysis of LD esters in solution; format: physicochemical; conditions: about pH 4.5, about 23° C.
Experimental: At a particular temperature and pH, the LDEs formed of LD and of different alcohols are hydrolyzed prior to their infusion at different rates. […] The rate of hydrolysis of LDE salts also depends on the anion, i.e., on the acid forming the LDE salt. LDE is hydrolyzed more rapidly when carboxylate anions and/or carboxylic acids replace the chloride anion or HCl. The rate of hydrolysis of the salt formed of LDEE and acetic acid can be about 3 times faster at about pH 4.5 at about 23° C. than that of LDEE.HCl, the salt formed of LDEE and HCl. The rate of hydrolysis at a particular pH and temperature can therefore depend on the buffering agent, e.g., citric acid and/or citrate anions, becoming faster when their concentration is elevated. Typically, the concentration of the buffering ions, i.e., the combined concentrations of citrates and citric acid, is between about 5 mM and 100 mM, for example between about 10 mM and 50 mM. The rate of hydrolysis can increase, for example, when the buffering citric acid-citrate concentration is increased.
In aqueous LDE salt pharmaceutical compositions, the hydrolysis rates generally decrease as the pH decreases, and the shelf life of the LDE salt consequently increases, unless the pH is about 1.7±0.5 or less. […] In acidic pharmaceutical compositions the amines of the LDEs are protonated, making the LDEs cations. […] The rates of hydrolysis generally increase with temperature, and may at least about double or about triple for each 10° C. increase, correspondingly decreasing upon cooling.

[5] = first infusion, continuous over 16 hours, 0.163 mL/hour, end of infusion
[6] = about 0.44 M LDEE.HCl infusible composition
[7] = about 1.0 M LDEE.HCl infusible composition

CCOC(=O)[C@@H](N)Cc1ccc(O)c(O)c1.Cl [LDEE.HCl, hydrochloride salt of the ethyl ester of L-DOPA]
concentration of LD after refrigerated storage [1]: less than 2 mg/mL
pain during infusion (0.48 M LDEE.HCl pH 3.5, 1.25 millimoles per infusion, all three infusions): no pain at any time during the infusions
diameter of area with redder skin [5]: 3 cm
diameter of slightly protruding hard swelling [5]: 2.5 cm
diameter of palpable induration (first infusion, continuous over 16 hours, after 21 hours): 1 cm
diameter of induration (first infusion, continuous over 16 hours, after 2 days): 0.5 cm
skin symptoms (second infusion, intermittent over 10.5 hours, 0.35 mL/hour, with oral carbidopa, end of infusion): no skin symptoms at the end of the infusion
skin symptoms (second infusion, intermittent over 10.5 hours, with oral carbidopa, after 11 hours): a barely perceptible very lightly pink 2.5 cm diameter zone and a very mild soft palpable swelling
skin symptoms (second infusion, intermittent over 10.5 hours, with oral carbidopa, after 36 hours): only a barely palpable 3 cm long 1 cm wide soft horizontal induration
skin symptoms (third infusion, intermittent over 10.8 hours, 0.35 mL/hour, without oral carbidopa, end of infusion): no significant skin symptoms at the end of the infusion
skin symptoms (third infusion, intermittent, without oral carbidopa, four hours after end of infusion): very slightly more pink over a 2.5 cm diameter zone and there was a small (2 cm×1 cm) barely palpable induration
skin symptoms (third infusion, intermittent, without oral carbidopa, fourteen hours after end of infusion): the site could be recognized by its pink color
Estimated operational life at 30° C. [2, 6]: >3 days
Estimated operational life at 37° C. [2, 6]: >2 days
Estimated storage life at 4° C. [2, 6]: >1.5 years
Estimated storage life at 25° C. [2, 6]: >1 months
Estimated operational life at 30° C. [2, 7]: >2 days
Estimated operational life at 37° C. [2, 7]: >1 days
Estimated storage life at 4° C. [2, 7]: >6 months
Estimated storage life at 25° C. [2, 7]: >2 weeks

N[C@@H](Cc1ccc(O)c(O)c1)C(=O)O [levodopa]
solubility [3]: ≤ 5 g per liter

CC(=O)O.CCOC(=O)C(N)Cc1ccc(O)c(O)c1 (stereo not shown) [salt formed of LDEE and acetic acid]
rate of hydrolysis relative to LDEE.HCl [4]: about 3 times
